{
  "source": "ChEMBL document CHEMBL1125472",
  "about": "“5-lipoxygenase: properties, pharmacology, and the quinolinyl(bridged)aryl class of inhibitors” (J Med Chem, 1992)",
  "key": {"RBL-2H3": {"test_system": "RBL-2H3", "experiment": "The compound was tested for inhibition LTC4 synthesis in RBL-2H3 Cells", "assay_type": "functional, Rattus norvegicus"}, "Mus musculus [1]": {"species_on_record": "Mus musculus", "experiment": "The effective dose which inhibits […](AA) and tetradecanoylphorbol acetate(TPA) induced inflammation", "assay_type": "functional"}, "Mus musculus [2]": {"species_on_record": "Mus musculus", "experiment": "Compound was tested for tetradecanoylphorbol acetate (TPA) induced inflammation at concentration of 1 mg/ear in mouse", "assay_type": "functional"}, "[3]": {"target": "T1, Polyunsaturated fatty acid 5-lipoxygenase (Rattus norvegicus) (UniProt P12527)", "T1 sequence (whole entry)": "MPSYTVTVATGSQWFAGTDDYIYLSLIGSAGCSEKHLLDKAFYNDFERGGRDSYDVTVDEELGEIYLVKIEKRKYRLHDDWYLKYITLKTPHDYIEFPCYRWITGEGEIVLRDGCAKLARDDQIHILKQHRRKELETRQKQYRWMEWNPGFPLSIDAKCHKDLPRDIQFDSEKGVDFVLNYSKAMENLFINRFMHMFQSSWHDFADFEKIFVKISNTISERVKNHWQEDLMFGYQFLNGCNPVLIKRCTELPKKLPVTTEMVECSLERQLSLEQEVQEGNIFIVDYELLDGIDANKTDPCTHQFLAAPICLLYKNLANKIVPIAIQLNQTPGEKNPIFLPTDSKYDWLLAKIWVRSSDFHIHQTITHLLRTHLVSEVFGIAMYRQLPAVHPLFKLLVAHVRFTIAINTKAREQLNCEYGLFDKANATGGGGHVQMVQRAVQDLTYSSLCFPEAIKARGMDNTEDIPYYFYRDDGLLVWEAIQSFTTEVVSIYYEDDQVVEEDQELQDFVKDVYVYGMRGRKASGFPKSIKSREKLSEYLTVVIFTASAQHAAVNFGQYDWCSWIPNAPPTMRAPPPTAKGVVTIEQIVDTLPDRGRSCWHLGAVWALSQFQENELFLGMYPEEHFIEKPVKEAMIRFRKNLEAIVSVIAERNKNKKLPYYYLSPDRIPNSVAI", "experiment": "The compound was tested for inhibition of 5-lipoxygenase in rat RBL-2H3 cells", "assay_type": "cell-based"}, "[4]": {"target": "T2, Polyunsaturated fatty acid 5-lipoxygenase (Mus musculus, UniProt P48999)", "T2 sequence (P48999 whole entry)": "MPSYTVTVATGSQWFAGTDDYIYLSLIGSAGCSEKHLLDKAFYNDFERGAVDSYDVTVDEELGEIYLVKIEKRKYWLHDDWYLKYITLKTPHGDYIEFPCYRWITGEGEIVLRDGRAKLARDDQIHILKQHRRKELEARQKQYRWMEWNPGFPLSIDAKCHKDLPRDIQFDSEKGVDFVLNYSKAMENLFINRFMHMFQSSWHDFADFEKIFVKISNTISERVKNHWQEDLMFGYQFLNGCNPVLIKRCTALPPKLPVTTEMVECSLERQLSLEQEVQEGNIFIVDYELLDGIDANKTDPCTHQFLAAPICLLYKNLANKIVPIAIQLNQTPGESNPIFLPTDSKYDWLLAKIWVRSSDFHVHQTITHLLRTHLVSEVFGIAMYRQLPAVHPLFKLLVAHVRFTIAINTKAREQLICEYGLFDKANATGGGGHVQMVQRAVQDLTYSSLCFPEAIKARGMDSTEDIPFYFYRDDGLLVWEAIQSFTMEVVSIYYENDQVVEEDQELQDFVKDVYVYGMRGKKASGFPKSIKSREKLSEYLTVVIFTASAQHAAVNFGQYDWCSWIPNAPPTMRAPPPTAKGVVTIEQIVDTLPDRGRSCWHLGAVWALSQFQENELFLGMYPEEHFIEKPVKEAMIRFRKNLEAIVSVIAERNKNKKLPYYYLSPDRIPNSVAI", "experiment": "The compound was tested for inhibitory activity against 5-lipoxygenase in mouse macrophages"}, "Cyclooxygenase": {"target": "T3, Cyclooxygenase (Rattus norvegicus, UniProt P35355+Q63921)", "T3 sequence (P35355 whole entry)": "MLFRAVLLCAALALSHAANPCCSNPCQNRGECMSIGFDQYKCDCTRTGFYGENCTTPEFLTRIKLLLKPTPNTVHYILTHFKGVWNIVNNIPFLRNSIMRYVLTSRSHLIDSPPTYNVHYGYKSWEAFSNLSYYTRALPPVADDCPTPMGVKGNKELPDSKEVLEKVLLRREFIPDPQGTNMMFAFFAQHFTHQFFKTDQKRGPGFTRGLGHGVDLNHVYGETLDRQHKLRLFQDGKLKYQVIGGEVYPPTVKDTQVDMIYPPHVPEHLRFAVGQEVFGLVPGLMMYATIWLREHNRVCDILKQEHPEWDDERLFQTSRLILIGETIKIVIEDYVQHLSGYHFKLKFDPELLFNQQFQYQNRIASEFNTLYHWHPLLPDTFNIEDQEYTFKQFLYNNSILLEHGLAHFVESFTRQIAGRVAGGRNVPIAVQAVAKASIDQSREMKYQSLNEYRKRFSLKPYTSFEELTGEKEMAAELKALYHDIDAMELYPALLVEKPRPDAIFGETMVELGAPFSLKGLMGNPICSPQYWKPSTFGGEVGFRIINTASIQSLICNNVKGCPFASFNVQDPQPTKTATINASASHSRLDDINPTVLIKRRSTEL", "T3 sequence (Q63921 whole entry)": "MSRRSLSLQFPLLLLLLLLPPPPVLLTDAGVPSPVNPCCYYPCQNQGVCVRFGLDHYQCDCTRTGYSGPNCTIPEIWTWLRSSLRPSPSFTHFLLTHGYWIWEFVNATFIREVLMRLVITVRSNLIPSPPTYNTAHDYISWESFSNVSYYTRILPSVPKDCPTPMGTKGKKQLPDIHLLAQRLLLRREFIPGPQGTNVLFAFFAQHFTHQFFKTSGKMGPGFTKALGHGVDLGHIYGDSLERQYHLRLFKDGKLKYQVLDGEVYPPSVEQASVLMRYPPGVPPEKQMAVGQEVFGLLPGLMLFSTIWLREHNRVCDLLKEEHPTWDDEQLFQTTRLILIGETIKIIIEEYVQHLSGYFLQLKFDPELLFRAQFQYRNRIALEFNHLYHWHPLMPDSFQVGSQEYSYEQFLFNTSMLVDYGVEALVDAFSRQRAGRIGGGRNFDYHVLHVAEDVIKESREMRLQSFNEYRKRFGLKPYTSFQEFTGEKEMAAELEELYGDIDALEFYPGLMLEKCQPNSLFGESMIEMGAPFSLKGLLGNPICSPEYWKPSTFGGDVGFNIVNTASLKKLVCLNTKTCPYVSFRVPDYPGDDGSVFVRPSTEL", "experiment": "The compound was tested for inhibitory activity against cyclooxygenase in rat polymorphonuclear leukocytes[PMNS]", "assay_type": "cell-based"}, "Cavia porcellus": {"species_on_record": "Cavia porcellus", "experiment": "The effective dose which inhibits UVB-induced guinea pig skin erythema", "assay_type": "functional"}},
  "data": [
    {"smiles": "c1ccc2nc(COc3cccc4ccccc34)ccc2c1", "values": [
      {"measurement": "Inhibition", "setting": "RBL-2H3", "result": 450, "unit": "nM"},
      {"measurement": "ED50", "setting": "Mus musculus [1]", "result": 0.3, "unit": "mg ear-1"},
      {"measurement": "Inhibition", "setting": "Mus musculus [2]", "result": 40, "unit": "%"},
      {"measurement": "Inhibition", "setting": "[3]", "result": "> 10", "unit": "µM"},
      {"measurement": "IC50", "setting": "[4]", "result": 200, "unit": "nM"},
      {"measurement": "IC50", "setting": "Cyclooxygenase", "result": 6300, "unit": "nM"},
      {"measurement": "ED50", "setting": "Cavia porcellus", "result": 0.25, "unit": "mg/spot"}
    ]}
  ]
}
